In ChEMBL document CHEMBL5150066, “Synthesis of estrone selenocyanate Compounds, anti-tumor activity evaluation and Structure-activity relationship analysis” (Bioorg Med Chem, 2022):

Experiments:
[1] = tested on: HeLa; test: Antiproliferative activity against human HeLa cells assessed as inhibition of cell growth incubated for 72 hrs by MTT assay; type: functional, cell-based
[2] = tested on: SK-OV-3; test: Antiproliferative activity against human SK-OV-3 cells assessed as inhibition of cell growth incubated for 72 hrs by MTT assay; type: functional, cell-based; details: SK-OV-3, 72 h
[3] = tested on: T47D; test: Antiproliferative activity against human T47D cells assessed as inhibition of cell growth incubated for 72 hrs by MTT assay; type: functional, cell-based
[4] = tested on: MCF7; test: Antiproliferative activity against human MCF7 cells assessed as inhibition of cell growth incubated for 72 hrs by MTT assay; type: functional, cell-based; details: MCF7, 72 h
[5] = tested on: HepG2; test: Antiproliferative activity against human HepG2 cells assessed as inhibition of cell growth incubated for 72 hrs by MTT assay; type: functional, cell-based; details: HepG2, 72 h
[6] = Cytotoxicity against HEK293T cells assessed as inhibition of cell growth incubated for 72 hrs by MTT assay; type: toxicity, cell-based, HEK-293T; details: human
[7] = Selectivity index, ratio of IC50 for cytotoxicity against HEK293T cells to IC50 for antiproliferative activity against human HeLa cells; type: toxicity, cell-based; details: HEK293T cells versus HeLa cells, read-out: Ratio IC50
[8] = tested on: HeLa; test: Antitumor activity against human HeLa cells xenografted in wildtype zebrafish AB yolk sac assessed as tumor fluorescence intensity at 15 uM measured immediately by fluorescence based assay; type: functional
[9] = tested on: HeLa; test: Antitumor activity against human HeLa cells xenografted in wildtype zebrafish AB yolk sac assessed as tumor fluorescence intensity at 15 uM measured 48 hrs post injection by fluorescence based assay; type: functional
[10] = tested on: HeLa; test: Antitumor activity against human HeLa cells xenografted in wildtype zebrafish AB yolk sac assessed as tumor fluorescence area at 15 uM measured immediately by fluorescence based assay; type: functional
[11] = tested on: HeLa; test: Antitumor activity against human HeLa cells xenografted in wildtype zebrafish AB yolk sac assessed as tumor fluorescence area at 15 uM measured 48 hrs post injection by fluorescence based assay; type: functional
[12] = tested on: SK-OV-3; test: Induction of apoptosis in human SK-OV-3 cells assessed as viable cells at 5 umol/L incubated for 24 hrs by Annexin V-FITC/PI staining based flow cytometric analysis (reference value: 89.83 %); type: functional; details: SK-OV-3, 24 h, dose 5 µmol/L, read-out: Activity
[13] = tested on: SK-OV-3; test: Induction of apoptosis in human SK-OV-3 cells assessed as early apoptotic cells at 5 umol/L incubated for 24 hrs by Annexin V-FITC/PI staining based flow cytometric analysis (reference value: 4.66 %); type: functional; details: dose 5 µmol/L, at 5 µM
[14] = tested on: SK-OV-3; test: Induction of apoptosis in human SK-OV-3 cells assessed as late apoptotic cells at 5 umol/L incubated for 24 hrs by Annexin V-FITC/PI staining based flow cytometric analysis (reference value: 5.51 %); type: functional; details: dose 5 µmol/L, at 5 µM
[15] = tested on: SK-OV-3; test: Induction of apoptosis in human SK-OV-3 cells assessed as necrotic cells at 5 umol/L incubated for 24 hrs by Annexin V-FITC/PI staining based flow cytometric analysis (reference value: 0.00 %); type: functional; details: dose 5 µmol/L, at 5 µM
[16] = tested on: SK-OV-3; test: Induction of apoptosis in human SK-OV-3 cells assessed as viable cells at 10 umol/L incubated for 24 hrs by Annexin V-FITC/PI staining based flow cytometric analysis (reference value: 89.83 %); type: functional; details: SK-OV-3, 24 h, dose 10 µmol/L, read-out: Activity
[17] = tested on: SK-OV-3; test: Induction of apoptosis in human SK-OV-3 cells assessed as early apoptotic cells at 10 umol/L incubated for 24 hrs by Annexin V-FITC/PI staining based flow cytometric analysis (reference value: 4.66 %); type: functional; details: dose 10 µmol/L, at 10 µM
[18] = tested on: SK-OV-3; test: Induction of apoptosis in human SK-OV-3 cells assessed as late apoptotic cells at 10 umol/L incubated for 24 hrs by Annexin V-FITC/PI staining based flow cytometric analysis (reference value: 5.51 %); type: functional; details: dose 10 µmol/L, at 10 µM
[19] = tested on: SK-OV-3; test: Induction of apoptosis in human SK-OV-3 cells assessed as necrotic cells at 10 umol/L incubated for 24 hrs by Annexin V-FITC/PI staining based flow cytometric analysis (reference value: 0.00 %); type: functional; details: dose 10 µmol/L, at 10 µM
[20] = tested on: SK-OV-3; test: Induction of apoptosis in human SK-OV-3 cells assessed as viable cells at 15 umol/L incubated for 24 hrs by Annexin V-FITC/PI staining based flow cytometric analysis (reference value: 89.83 %); type: functional; details: SK-OV-3, 24 h, dose 15 µmol/L, read-out: Activity
[21] = tested on: SK-OV-3; test: Induction of apoptosis in human SK-OV-3 cells assessed as early apoptotic cells at 15 umol/L incubated for 24 hrs by Annexin V-FITC/PI staining based flow cytometric analysis (reference value: 4.66 %); type: functional; details: dose 15 µmol/L, at 15 µM
[22] = tested on: SK-OV-3; test: Induction of apoptosis in human SK-OV-3 cells assessed as late apoptotic cells at 15 umol/L incubated for 24 hrs by Annexin V-FITC/PI staining based flow cytometric analysis (reference value: 5.51 %); type: functional; details: dose 15 µmol/L, at 15 µM
[23] = tested on: SK-OV-3; test: Induction of apoptosis in human SK-OV-3 cells assessed as necrotic cells at 15 umol/L incubated for 24 hrs by Annexin V-FITC/PI staining based flow cytometric analysis (reference value: 0.00 %); type: functional; details: dose 15 µmol/L, at 15 µM
[24] = tested on: SK-OV-3; test: Induction of apoptosis in human SK-OV-3 cells assessed as viable cells at 20 umol/L incubated for 24 hrs by Annexin V-FITC/PI staining based flow cytometric analysis (reference value: 89.83 %); type: functional; details: SK-OV-3, 24 h, dose 20 µmol/L, read-out: Activity
[25] = tested on: SK-OV-3; test: Induction of apoptosis in human SK-OV-3 cells assessed as early apoptotic cells at 20 umol/L incubated for 24 hrs by Annexin V-FITC/PI staining based flow cytometric analysis (reference value: 4.66 %); type: functional; details: dose 20 µmol/L, at 20 µM
[26] = tested on: SK-OV-3; test: Induction of apoptosis in human SK-OV-3 cells assessed as late apoptotic cells at 20 umol/L incubated for 24 hrs by Annexin V-FITC/PI staining based flow cytometric analysis (reference value: 5.51 %); type: functional; details: dose 20 µmol/L, at 20 µM
[27] = tested on: SK-OV-3; test: Induction of apoptosis in human SK-OV-3 cells assessed as necrotic cells at 20 umol/L incubated for 24 hrs by Annexin V-FITC/PI staining based flow cytometric analysis (reference value: 0.00 %); type: functional; details: dose 20 µmol/L, at 20 µM
[28] = tested on: SK-OV-3; test: Induction of apoptosis in human SK-OV-3 cells assessed as viable cells at 25 umol/L incubated for 24 hrs by Annexin V-FITC/PI staining based flow cytometric analysis (reference value: 89.83 %); type: functional; details: SK-OV-3, 24 h, dose 25 µmol/L, read-out: Activity
[29] = tested on: SK-OV-3; test: Induction of apoptosis in human SK-OV-3 cells assessed as early apoptotic cells at 25 umol/L incubated for 24 hrs by Annexin V-FITC/PI staining based flow cytometric analysis (reference value: 4.66 %); type: functional; details: dose 25 µmol/L, at 25 µM
[30] = tested on: SK-OV-3; test: Induction of apoptosis in human SK-OV-3 cells assessed as late apoptotic cells at 25 umol/L incubated for 24 hrs by Annexin V-FITC/PI staining based flow cytometric analysis (reference value: 5.51 %); type: functional; details: dose 25 µmol/L, at 25 µM
[31] = tested on: SK-OV-3; test: Induction of apoptosis in human SK-OV-3 cells assessed as necrotic cells at 25 umol/L incubated for 24 hrs by Annexin V-FITC/PI staining based flow cytometric analysis (reference value: 0.00 %); type: functional; details: dose 25 µmol/L, at 25 µM

SMILES: C[C@]12CC[C@@H]3c4ccc(OCCCCC[Se]C#N)cc4CC[C@H]3[C@@H]1CCC2=O
- IC50 [1]: 9.5 µM
- IC50 [2]: 31 µM
- IC50 [3]: 68.2 µM
- IC50 [4]: 38.3 µM
- IC50 [5]: > 100 µM
- IC50 at 72 h [6]: 77.2 µM
- selectivity ratio [7]: 8.1
- Flu intensity [8]: 43169.53
- Flu intensity [9]: 5328.6
- Activity [10]: 79354.17 pixel
- Activity [11]: 12391.83 pixel

SMILES: C[C@]12CC[C@@H]3c4cc(NC(=O)CCCCCC[Se]C#N)c(O)cc4CC[C@H]3[C@@H]1CCC2=O
- IC50 [1]: 10.2 µM
- IC50 [2]: 8.2 µM
- IC50 [3]: 24.9 µM
- IC50 [4]: 10.1 µM
- IC50 [5]: 10.1 µM
- IC50 at 72 h [6]: 14.4 µM
- viability at 5 µM [12]: 43.9%
- Activity [13]: 27.75%
- Activity [14]: 28.34%
- Activity [15]: 0.04%
- viability at 10 µM [16]: 30.2%
- Activity [17]: 32.38%
- Activity [18]: 36.97%
- Activity [19]: 0.45%
- viability at 15 µM [20]: 16.3%
- Activity [21]: 31.88%
- Activity [22]: 51.6%
- Activity [23]: 0.2%
- viability at 20 µM [24]: 12.5%
- Activity [25]: 29.04%
- Activity [26]: 58.26%
- Activity [27]: 0.17%
- viability at 25 µM [28]: 6.93%
- Activity [29]: 42.27%
- Activity [30]: 50.48%
- Activity [31]: 0.33%
